The subject of data set [1] is plasminogen activating activity in pleural fluid. Kind of data set: Intrapleural inactivation of tPA and uPA plasminogen activating activity, empyema. Format: in vivo, rabbit. As to conditions: infectious pleural injury. The method, then: Amidolytic activity was measured in clear 96‐well flat bottom plates from Costar (Corning Inc.) using a Synergy™ HT Hybrid Reader (BioTek, Winooski, VT). Amidolytic activity was calculated from the initial slopes of the time traces of the change in absorbance at 405 nm upon hydrolysis of chromogenic as described previously (Komissarov et al., 2009, 2013). The plasminogen activating activity was determined from the relative rate of activation of exogenous Glu‐plasminogen added to the reaction mixture containing 0.1–0.5 µl of pleural fluid in 0.1 ml of Hepes buffer solution with BSA (1 mg/ml) as previously described (Florova et al., 2013, 2018). The reaction mixtures (0.1 ml in black 96‐well flat bottom plates from Costar) contained 100 nM of human Glu‐plasminogen with 0.2 mM of SN‐5 plasmin fluorogenic substrate (HTI, Essex Junction, VT). Plasmin activity was measured by recording changes in the fluorescence emission at 470 nm (F470) with time (excitation at 352 nm) using a Synergy™ HT Hybrid Reader (BioTek, Winooski, VT). The level of plasminogen activating activity [PA] was calculated from slopes of linear dependences of F470 from square of time (t^2) (F470 = A [PA] t^2 + B; where A and B are constants), and results of measurements of standards with known concentrations of tcuPA and tctPA as previously described (Komissarov et al., 2009, 2013). […]

Data set [2] has as its system FITC‐fibrin. Kind of data set: Fibrinolytic activity in pleural fluids (FITC-fibrin film assay), TCN-induced injury. Type of data set: in vivo, rabbit. As to conditions: PAI-1-TFT with 2.0 mg/kg DSP, chemically induced injury; for Steady-state level of pleural fluid fibrinolytic activity: relative to supplemented baseline. The procedure:
(§1) A Pilot Fibrinolytic Assay (FPA96F) was used to measure fibrinolytic potential (Beckert et al., 2019; Florova et al., 2015) and fibrinolytic activity (Florova et al., 2015, 2018; Komissarov et al., 2016) in pleural fluid samples. To prepare a FITC‐fibrin film, a 1:1 mixture of FITC‐tagged and unlabeled fibrinogen (0.4 mg/ml) in 0.05 M Hepes/NaOH (pH 7.5, 130 mM NaCl, 5 mM CaCl2) buffer at room temperature was transferred to black 96‐well flat bottom plates from Costar (Corning Inc, NY). Human thrombin (final concentration 10 nM) was added to each well and plates were dried overnight in a dark chemical hood at room temperature. 96‐well plates with FITC‐fibrin film were washed three times with 0.3 ml of cold Hepes/NaOH buffer and stored at −20°C up to one year. Fibrinolytic activity in pleural fluids was calculated from the slopes of time‐dependences of an increase in the fluorescence emission at 512 nm (excitation at 490 nm) due to the degradation of FITC‐fibrin. Fibrinolytic potential was determined as the difference between fibrinolytic activity in samples of pleural fluid at baseline (BL) or 24 h measured with and without supplementation with sctPA (Florova et al., 2015). To determine whether PAI‐1‐TFT affects fibrinolytic potential in rabbits, BL values were plotted against fibrinolytic potential at 24 h and the linear correlation was determined using Sigmaplot 14.0.

The subject of data set [3] is FITC‐fibrin. Kind of data set: Fibrinolytic activity in pleural fluids (FITC-fibrin film assay), empyema. Type of data set: in vivo, rabbit. As to conditions: PAI-1-TFT with 2.0 mg/kg DSP, infectious pleural injury; for Steady-state level of pleural fluid fibrinolytic activity: relative to supplemented baseline. The method, then:
as §1

Data set [4] concerns Streptococcus pneumoniae induced empyema. As to conditions: higher in empyema; ref Idell et al., 2007; cited from earlier work. From the text:
(§2) Plasminogen Activator Inhibitor‐1 (PAI‐1) is a mechanism‐based inhibitor of tissue type (tPA) and urokinase (uPA) plasminogen activators (PAs) (Carrell et al., 1991; Chaillan‐Huntington et al., 1997; Mourik et al., 1984) used for fibrinolytic therapy. Levels of PAI‐1 increase by up to three orders of magnitude in empyema (pleural sepsis), and organizing pleural injury (Aleman et al., 2003; Chung et al., 2005; Philip‐Joet et al., 1995), limiting endogenous and exogenous plasminogen activating activity that could help prevent or treat uncontrolled fibrin deposition induced by inflammation. First, DSP alone was used to treat pleural injury in both models to determine its effects on the endogenous fibrinolytic system. The results (Figure 2) clearly indicate that even a relatively high dose of DSP (2.0 mg/kg) is insufficient to mobilize endogenous fibrinolysis effectively once pleural injury has developed; there was no reversal effect with DSP alone. DSP alone, even at a 4‐fold higher dose (8.0 mg/kg), was also ineffective (GLIS>10) in treatment of empyema (Figure 2). Next, PAI‐1‐TFT with ...

Data set [5] deals with chemically induced (TCN) pleural injury. As to conditions: bolus, ref Idell et al., 2007; cited from earlier work.
Excerpt: as §2

With Prourokinase [scuPA], the “kobs of intrapleural inactivation” value in data set [1] (with 2.0 mg/kg DSP) was found to be 0.014 ± 0.008 min⁻¹. Besides, in data set [2], the “kobs of decrease in pleural fluid fibrinolytic activity to steady state” value (shortened to “kobs of decrease”) is 0.09 ± 0.06 min⁻¹ and the “Steady-state level of pleural fluid fibrinolytic activity” value (“Steady-state level” below) is recorded as 5.6%. Besides, in data set [3], the “kobs of decrease” value was found to be 0.16 ± 0.06 min⁻¹ and the “Steady-state level” value stood at 2.5%. Further, the “MED for empyema relative to MED in TCN-induced pleural injury” value in data set [4] is 4 fold. Further, in data set [5], the “Minimal effective dose (MED) of plasminogen activator alone” value is given as 0.5 mg/kg.
As to Alteplase [sctPA, reference compound], in data set [1] (with 2.0–8.0 mg/kg DSP), the “kobs of intrapleural inactivation” value is 0.024 ± 0.010 min⁻¹. Also, in data set [2], the “kobs of decrease” value turned out to be 0.40 ± 0.11 min⁻¹ and the “Steady-state level” value is recorded as 2.7%. Moreover, in data set [3], the “kobs of decrease” value came to 0.48 ± 0.07 min⁻¹ and the “Steady-state level” value stood at 1.5%. The “MED for empyema relative to MED in TCN-induced pleural injury” value in data set [4] is 13.8 fold. Further, the “Minimal effective dose (MED) of plasminogen activator alone” value in data set [5] is reported as 0.145 mg/kg.

These data come from publication PMC8123555, “Precision targeting of the plasminogen activator inhibitor‐1 mechanism increases efficacy of fibrinolytic therapy in empyema” (Physiological Reports, 2021).
